Results published in PubChem BioAssay (NCI).
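Method: 48-hour compound exposure of cells in 96-well plates, five concentrations, linear interpolation of endpoints. Here, GI50 denotes the concentration required for 50% inhibition of growth. TGI denotes the concentration required for complete inhibition of growth.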

Columns and labels:
Assay in all cases: NCI anticancer screen, dose series, 48 h
A498 renal = system: A498 renal
ACHN renal = system: ACHN renal
COLO 205 colon = system: COLO 205 colon
HCC-2998 colon = system: HCC-2998 colon
HCT-116 colon = system: HCT-116 colon
MALME-3M melanoma = system: MALME-3M melanoma
MDA-MB-435 = system: MDA-MB-435
SNB-19 CNS = system: SNB-19 CNS
UACC-62 melanoma = system: UACC-62 melanoma
UO-31 renal = system: UO-31 renal

Structure (SMILES): CN(C)c1cc(NN=C(c2ccc(O)cc2)c2ccc(O)cc2)c([N+](=O)[O-])cc1[N+](=O)[O-]
- GI50 (A498 renal): 8180 nM
- TGI (A498 renal): 21.6 µM
- GI50 (ACHN renal): 2360 nM
- TGI (ACHN renal): 13.3 µM
- GI50 (COLO 205 colon): 8520 nM
- TGI (COLO 205 colon): 24.7 µM
- GI50 (HCC-2998 colon): 13800 nM
- TGI (HCC-2998 colon): 27.8 µM
- GI50 (HCT-116 colon): 5140 nM
- TGI (HCT-116 colon): 21.1 µM
- GI50 (MALME-3M melanoma): 13.7 µM
- TGI (MALME-3M melanoma): 28 µM
- GI50 (MDA-MB-435): 3020 nM
- TGI (MDA-MB-435): 14.3 µM
- GI50 (SNB-19 CNS): 9.4 µM
- TGI (SNB-19 CNS): 22.2 µM
- GI50 (UACC-62 melanoma): 3410 nM
- TGI (UACC-62 melanoma): 14.4 µM
- GI50 (UO-31 renal): 5.32 µM
- TGI (UO-31 renal): 20.5 µM

Structure (SMILES): CC(C)[C@@H]1C=C2CC[C@H]3[C@](C)(CN)CCC[C@]3(C)[C@H]2CC1
- GI50 (A498 renal): 2130 nM
- TGI (A498 renal): 15 µM
- GI50 (ACHN renal): 5670 nM
- TGI (ACHN renal): 18.5 µM
- GI50 (COLO 205 colon): 1700 nM
- TGI (COLO 205 colon): 3.17 µM
- GI50 (HCC-2998 colon): 1630 nM
- TGI (HCC-2998 colon): 3.03 µM
- GI50 (HCT-116 colon): 1770 nM
- TGI (HCT-116 colon): 3.18 µM
- GI50 (MALME-3M melanoma): 3.9 µM
- TGI (MALME-3M melanoma): 19.3 µM
- GI50 (MDA-MB-435): 1980 nM
- TGI (MDA-MB-435): 4.2 µM
- GI50 (SNB-19 CNS): 8.17 µM
- TGI (SNB-19 CNS): 21.1 µM
- GI50 (UACC-62 melanoma): 16000 nM
- TGI (UACC-62 melanoma): 30.5 µM
- GI50 (UO-31 renal): 3.33 µM
- TGI (UO-31 renal): 16.1 µM

Structure (SMILES): O=S(=O)(c1ccccc1)N1CCN(S(=O)(=O)c2ccccc2)c2ccccc21
- TGI (A498 renal): > 100 µM
- TGI (ACHN renal): > 100 µM
- TGI (COLO 205 colon): > 100 µM
- TGI (HCC-2998 colon): > 100 µM
- TGI (HCT-116 colon): > 100 µM
- TGI (MALME-3M melanoma): > 100 µM
- TGI (MDA-MB-435): > 100 µM
- TGI (SNB-19 CNS): > 100 µM
- TGI (UACC-62 melanoma): > 100 µM
- TGI (UO-31 renal): > 100 µM

Structure (SMILES): COc1ccc(CCN=C2NC(=O)/C(=C/c3ccc4ncccc4c3)S2)cc1
- GI50 (A498 renal): > 18300 nM
- TGI (A498 renal): > 25 µM
- GI50 (ACHN renal): > 25000 nM
- TGI (ACHN renal): > 25 µM
- GI50 (COLO 205 colon): > 25000 nM
- TGI (COLO 205 colon): > 25 µM
- GI50 (HCC-2998 colon): > 25000 nM
- TGI (HCC-2998 colon): > 25 µM
- GI50 (HCT-116 colon): > 25000 nM
- TGI (HCT-116 colon): > 25 µM
- GI50 (MALME-3M melanoma): > 25 µM
- TGI (MALME-3M melanoma): > 25 µM
- GI50 (MDA-MB-435): > 25000 nM
- TGI (MDA-MB-435): > 25 µM
- GI50 (SNB-19 CNS): > 25 µM
- TGI (SNB-19 CNS): > 25 µM
- GI50 (UACC-62 melanoma): > 25000 nM
- TGI (UACC-62 melanoma): > 25 µM
- GI50 (UO-31 renal): > 25 µM
- TGI (UO-31 renal): > 25 µM

Structure (SMILES): O=C1CN(c2cccc(Cl)c2)C(=O)CN1CCN1CC(=O)N(c2cccc(Cl)c2)CC1=O
- TGI (A498 renal): > 100 µM
- TGI (ACHN renal): > 100 µM
- TGI (COLO 205 colon): > 100 µM
- TGI (HCC-2998 colon): > 100 µM
- TGI (HCT-116 colon): > 100 µM
- TGI (MALME-3M melanoma): > 100 µM
- TGI (MDA-MB-435): > 100 µM
- TGI (SNB-19 CNS): > 100 µM
- TGI (UACC-62 melanoma): > 100 µM
- TGI (UO-31 renal): > 100 µM

Structure (SMILES): O=C1CCCCN1c1ccccc1C#C/C=C\C#Cc1ccccc1C(F)(F)F
- GI50 (A498 renal): 2250 nM
- TGI (A498 renal): 28.4 µM
- GI50 (ACHN renal): 2670 nM
- TGI (ACHN renal): 14.7 µM
- GI50 (COLO 205 colon): 11500 nM
- TGI (COLO 205 colon): > 50 µM
- GI50 (HCC-2998 colon): 951 nM
- TGI (HCC-2998 colon): 2.5 µM
- GI50 (HCT-116 colon): 1010 nM
- TGI (HCT-116 colon): 2.59 µM
- GI50 (MALME-3M melanoma): 2.29 µM
- TGI (MALME-3M melanoma): 39.2 µM
- GI50 (MDA-MB-435): 603 nM
- TGI (MDA-MB-435): 1.8 µM
- GI50 (SNB-19 CNS): > 50 µM
- TGI (SNB-19 CNS): > 50 µM
- GI50 (UACC-62 melanoma): 1440 nM
- TGI (UACC-62 melanoma): 4.86 µM
- GI50 (UO-31 renal): 2 µM
- TGI (UO-31 renal): 13.6 µM

Structure (SMILES): CCN(C(=O)N1CCN(c2cc3c(cc2F)c(=O)c(C(=O)O)cn3C2CC2)CC1)c1nc(-c2ccc(Cl)cc2)cs1
- GI50 (A498 renal): 29.8 nM
- TGI (A498 renal): 1.6 µM
- GI50 (ACHN renal): 1240 nM
- TGI (ACHN renal): 10.1 µM
- GI50 (COLO 205 colon): 2000 nM
- TGI (COLO 205 colon): 6.17 µM
- GI50 (HCC-2998 colon): 2830 nM
- TGI (HCC-2998 colon): > 28.6 µM
- GI50 (HCT-116 colon): 1100 nM
- TGI (HCT-116 colon): > 100 µM
- GI50 (MALME-3M melanoma): 1.38 µM
- TGI (MALME-3M melanoma): 5.95 µM
- GI50 (MDA-MB-435): 1210 nM
- TGI (MDA-MB-435): 7.03 µM
- GI50 (SNB-19 CNS): 1.09 µM
- TGI (SNB-19 CNS): 49.5 µM
- GI50 (UACC-62 melanoma): 1130 nM
- TGI (UACC-62 melanoma): 3.55 µM
- GI50 (UO-31 renal): 0.986 µM
- TGI (UO-31 renal): > 20.5 µM

Structure (SMILES): O=C(/C(=C/c1ccc([N+](=O)[O-])cc1)SCc1ccccc1)c1ccc(Cl)cc1
- GI50 (A498 renal): 13200 nM
- TGI (A498 renal): 28.2 µM
- GI50 (ACHN renal): 1970 nM
- TGI (ACHN renal): 4.16 µM
- GI50 (COLO 205 colon): 2140 nM
- TGI (COLO 205 colon): 5.11 µM
- GI50 (HCC-2998 colon): 1970 nM
- TGI (HCC-2998 colon): 3.89 µM
- GI50 (MALME-3M melanoma): 3.12 µM
- TGI (MALME-3M melanoma): 11.7 µM
- GI50 (MDA-MB-435): 3220 nM
- TGI (MDA-MB-435): 11.4 µM
- GI50 (SNB-19 CNS): 3.59 µM
- TGI (SNB-19 CNS): 15.6 µM
- GI50 (UACC-62 melanoma): 2560 nM
- TGI (UACC-62 melanoma): 9.12 µM
- GI50 (UO-31 renal): 1.5 µM
- TGI (UO-31 renal): 3.3 µM

Structure (SMILES): CCn1c(-c2nonc2N)nc2c(C#CC(C)(C)O)nc(OC[C@@H](N)c3ccccc3)cc21
- GI50 (A498 renal): 2200 nM
- TGI (A498 renal): 12.4 µM
- GI50 (ACHN renal): 4170 nM
- TGI (ACHN renal): 9.42 µM
- GI50 (COLO 205 colon): 4680 nM
- TGI (COLO 205 colon): 8.31 µM
- GI50 (HCC-2998 colon): 4310 nM
- TGI (HCC-2998 colon): 8.14 µM
- GI50 (HCT-116 colon): 4130 nM
- TGI (HCT-116 colon): 7.63 µM
- GI50 (MALME-3M melanoma): 5.46 µM
- TGI (MALME-3M melanoma): 9.77 µM
- GI50 (MDA-MB-435): 5220 nM
- TGI (MDA-MB-435): 9.81 µM
- GI50 (SNB-19 CNS): 6 µM
- TGI (SNB-19 CNS): 11.6 µM
- GI50 (UACC-62 melanoma): 4890 nM
- TGI (UACC-62 melanoma): 8.79 µM
- GI50 (UO-31 renal): 5.08 µM
- TGI (UO-31 renal): 9.4 µM

Structure (SMILES): Cc1nnc(NC(=O)c2nc(S(=O)(=O)Cc3ccc(F)cc3)ncc2Cl)s1
- GI50 (A498 renal): 13100 nM
- TGI (A498 renal): 26.4 µM
- GI50 (ACHN renal): 1940 nM
- TGI (ACHN renal): 3.68 µM
- GI50 (COLO 205 colon): 1820 nM
- TGI (COLO 205 colon): 3.68 µM
- GI50 (HCC-2998 colon): 13400 nM
- TGI (HCC-2998 colon): 29.4 µM
- GI50 (HCT-116 colon): 1830 nM
- TGI (HCT-116 colon): 3.67 µM
- GI50 (MALME-3M melanoma): 1.8 µM
- TGI (MALME-3M melanoma): 3.48 µM
- GI50 (MDA-MB-435): 1820 nM
- TGI (MDA-MB-435): 3.43 µM
- GI50 (SNB-19 CNS): 15.6 µM
- TGI (SNB-19 CNS): 35.1 µM
- GI50 (UACC-62 melanoma): 1610 nM
- TGI (UACC-62 melanoma): 3.01 µM
- GI50 (UO-31 renal): 7.15 µM
- TGI (UO-31 renal): 20.6 µM

Structure (SMILES): Nc1ccccc1SC(CC(=O)c1ccccc1)c1cccc([N+](=O)[O-])c1 (stereo not drawn)
- GI50 (A498 renal): 16600 nM
- TGI (A498 renal): 30.9 µM
- GI50 (ACHN renal): 14500 nM
- TGI (ACHN renal): 27.9 µM
- GI50 (COLO 205 colon): 19100 nM
- TGI (COLO 205 colon): 34.7 µM
- GI50 (HCC-2998 colon): 17300 nM
- TGI (HCC-2998 colon): 31.3 µM
- GI50 (HCT-116 colon): 1960 nM
- TGI (HCT-116 colon): 3.97 µM
- GI50 (MALME-3M melanoma): 16.9 µM
- TGI (MALME-3M melanoma): 31.3 µM
- GI50 (MDA-MB-435): 16300 nM
- TGI (MDA-MB-435): 30.4 µM
- GI50 (SNB-19 CNS): 14.3 µM
- TGI (SNB-19 CNS): 27.4 µM
- GI50 (UACC-62 melanoma): 13800 nM
- TGI (UACC-62 melanoma): 26.9 µM
- GI50 (UO-31 renal): 3.11 µM
- TGI (UO-31 renal): 20.5 µM

Structure (SMILES): Nc1cc(NN=C(c2ccc(O)cc2)c2ccc(O)cc2)c([N+](=O)[O-])cc1[N+](=O)[O-]
- GI50 (A498 renal): 1690 nM
- TGI (A498 renal): 3.55 µM
- GI50 (ACHN renal): 1860 nM
- TGI (ACHN renal): 5.55 µM
- GI50 (COLO 205 colon): 1850 nM
- TGI (COLO 205 colon): 4.49 µM
- GI50 (HCC-2998 colon): 1570 nM
- TGI (HCC-2998 colon): 3.51 µM
- GI50 (HCT-116 colon): 2000 nM
- TGI (HCT-116 colon): 4.23 µM
- GI50 (MALME-3M melanoma): 2.45 µM
- TGI (MALME-3M melanoma): 5.96 µM
- GI50 (MDA-MB-435): 1700 nM
- TGI (MDA-MB-435): 3.44 µM
- GI50 (SNB-19 CNS): 2.32 µM
- TGI (SNB-19 CNS): 7.12 µM
- GI50 (UACC-62 melanoma): 1660 nM
- TGI (UACC-62 melanoma): 3.01 µM
- GI50 (UO-31 renal): 1.81 µM
- TGI (UO-31 renal): 4.87 µM
